Laboratory results taken from patent US20050176641A1, “Long lasting natriuretic peptide derivatives” (CONJUCHEM, INC., priority 2000, published 2005).
Read-outs that look alike come from different tables or passages of the source. Each block holds one molecule with its values, some of them ahead of it. Positions of bridges follow the written chain, without caps; N, C: chain ends. Residues, ends and D or L forms follow the SMILES beside them.

Tests used:
[1] = target: T1, natriuretic peptide receptors with guanylate cyclase activity (Homo sapiens, UniProt P16066); experiment: cGMP production in human Hela cells; type: cell-based
T1 construct: Hela cells express high levels of natriuretic peptide receptors with guanylate cyclase activity; endogenous in cells; host or cells: HeLa (human cervix epithelial adenocarcinoma)
T1 sequence (P16066 33-1061): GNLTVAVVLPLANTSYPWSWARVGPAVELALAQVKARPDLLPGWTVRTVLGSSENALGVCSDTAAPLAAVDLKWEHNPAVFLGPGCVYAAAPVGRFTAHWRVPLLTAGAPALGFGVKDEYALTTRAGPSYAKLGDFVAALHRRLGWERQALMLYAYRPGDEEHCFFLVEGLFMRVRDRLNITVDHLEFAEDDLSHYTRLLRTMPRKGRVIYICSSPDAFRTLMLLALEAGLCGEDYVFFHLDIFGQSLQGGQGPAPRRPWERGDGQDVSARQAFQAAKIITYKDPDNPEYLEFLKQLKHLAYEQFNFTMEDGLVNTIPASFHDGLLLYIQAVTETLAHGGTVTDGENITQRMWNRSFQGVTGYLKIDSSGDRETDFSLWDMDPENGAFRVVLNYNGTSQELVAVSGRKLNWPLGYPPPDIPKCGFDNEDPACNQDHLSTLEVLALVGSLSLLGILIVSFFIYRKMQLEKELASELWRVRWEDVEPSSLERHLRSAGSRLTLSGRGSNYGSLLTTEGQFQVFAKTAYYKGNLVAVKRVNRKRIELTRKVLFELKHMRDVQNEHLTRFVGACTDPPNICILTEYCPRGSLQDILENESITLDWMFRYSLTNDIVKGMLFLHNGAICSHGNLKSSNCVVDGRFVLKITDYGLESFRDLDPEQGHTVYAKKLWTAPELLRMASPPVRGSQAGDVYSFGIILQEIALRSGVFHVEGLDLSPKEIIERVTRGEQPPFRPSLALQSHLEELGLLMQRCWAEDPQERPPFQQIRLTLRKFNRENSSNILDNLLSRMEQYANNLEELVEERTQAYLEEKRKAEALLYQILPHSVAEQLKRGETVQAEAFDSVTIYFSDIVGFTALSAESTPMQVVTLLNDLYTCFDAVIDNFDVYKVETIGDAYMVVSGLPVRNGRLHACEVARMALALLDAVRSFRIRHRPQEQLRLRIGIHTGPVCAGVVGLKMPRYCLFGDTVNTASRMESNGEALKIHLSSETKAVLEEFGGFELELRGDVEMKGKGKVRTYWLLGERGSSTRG
Protocol: For in vitro activity studies, a human cervix epithelial adenocarcinoma cell line was used. Hela cells express high levels of natriuretic peptide receptors with guanylate cyclase activity.
One day prior cGMP experiments, cells are seeded in 48-wells plate (5×10^4 cells per well) and incubated overnight. The day of the experiment cells are washed twice in serum-free media and then incubated with or without NP derivatives or native ANP or BNP for one hour, in presence of 3-isobutyl-1-methylxanthine to prevent cGMP degradation. Incubation is terminated by removing the assay medium and by adding HCl to the cells for 10 minutes. The supernatants were then collected, centrifuged and cGMP levels are assessed using the direct cGMP EIA kit from Sigma.

NPR receptors = experiment: Binding to guinea pig adrenal gland membranes by displacement of 125I-rANP
Protocol: The potency of NP derivatives is evaluated as their ability to bind NPR receptors in guinea pig adrenal glands and to elevate cGMP levels in a rat primary lung fibroblasts assay. Others cell lines can be used to perform these in vitro assays such as aortic smooth muscle cells, glomeruli mesangial cells and adrenal cells. Human, rat, and ginea pig cell lines or other species cell lines can be used with a preference for human cell lines.
Membranes for binding studies are prepared as follow. Adrenal glands were collected from anesthetized normal Duncan Hartley Guinea Pig and homogenized using a polytron in 50 mM Tris-HCl buffer containing 150 mM NaCl, 5 mM MgCl2, 5 mM MnCl2; pH 7.4 at 25° C. The homogenate was centrifuged for 10 minutes at 39,000×g (4° C.). The pellet was resuspended and washed. Finally, the membranes were resuspended in the same buffer supplemented with 1 mM Na2EDTA+0.2% BSA. Protein concentration is measured using the BCA protein assay kit (Pierce). The binding assay is done by incubation of membranes with 0.016 nM ^125I-rANF and increasing concentrations of either NP peptides or NP derivatives (10^−5-10^−11 M) for 60 minutes at 4° C. All assays were done in duplicate. Separation of bound and free radioactive rANF was achieved by rapid filtration through polyethylenimine-treated Whatman GF/C filters soaked in assay buffer. Filters were washed, dried and counted for radioactivity in a gamma-counter.

[2] = literature values; cited from earlier work
[3] = human Hela cells, one hour incubation, with 3-isobutyl-1-methylxanthine, read-out: EC50 (M), increase of cGMP production

Molecule: CC[C@H](C)[C@@H]1NC(=O)[C@H](CCCNC(=N)N)NC(=O)[C@H](CC(=O)O)NC(=O)[C@H]([C@@H](C)CC)NC(=O)[C@H](CCCNC(=N)N)NC(=O)CNC(=O)CNC(=O)[C@H](Cc2ccccc2)NC(=O)[C@@H](N)CSSC[C@@H](C(=O)N[C@@H](CC(N)=O)C(=O)N[C@@H](CO)C(=O)N[C@@H](Cc2ccccc2)C(=O)N[C@@H](CCCNC(=N)N)C(=O)N[C@@H](Cc2ccc(O)cc2)C(N)=O)NC(=O)CNC(=O)[C@H](CC(C)C)NC(=O)CNC(=O)[C@H](CO)NC(=O)[C@H](CCC(N)=O)NC(=O)[C@H](C)NC(=O)CNC1=O [Example 13] (H-CFGGRIDRIGAQSGLGCNSFRY-NH2; disulfide 1-17)
EC50 [1, 3]: 2.72e-08 M

EC50 [1, 3]: 2.21e-08 M
Molecule: CC[C@H](C)[C@@H]1NC(=O)[C@H](CCCNC(=N)N)NC(=O)[C@H](CC(=O)O)NC(=O)[C@H](CCSC)NC(=O)[C@H](CCCNC(=N)N)NC(=O)CNC(=O)CNC(=O)[C@H](Cc2ccccc2)NC(=O)[C@@H](N)CSSC[C@@H](C(=O)N[C@@H](CC(N)=O)C(=O)N[C@@H](CO)C(=O)N[C@@H](Cc2ccccc2)C(=O)N[C@@H](CCCNC(=N)N)C(=O)N[C@@H](Cc2ccc(O)cc2)C(N)=O)NC(=O)CNC(=O)[C@H](CC(C)C)NC(=O)CNC(=O)[C@H](CO)NC(=O)[C@H](CCC(N)=O)NC(=O)[C@H](C)NC(=O)CNC1=O [Example 17] (H-CFGGRMDRIGAQSGLGCNSFRY-NH2; disulfide 1-17)

Molecule: CC[C@H](C)[C@@H]1NC(=O)[C@H](CCCNC(=N)N)NC(=O)[C@H](CC(=O)O)NC(=O)[C@H](CCSC)NC(=O)[C@H](CCCCN)NC(=O)[C@H](CCCNC(=N)N)NC(=O)CNC(=O)[C@H](Cc2ccccc2)NC(=O)[C@@H](NC(=O)CNC(=O)[C@H](CO)NC(=O)CNC(=O)[C@H](CCC(N)=O)NC(=O)[C@@H](NC(=O)[C@H](CCSC)NC(=O)[C@H](CCCCN)NC(=O)[C@@H]2CCCN2C(=O)[C@@H](N)CO)C(C)C)CSSC[C@@H](C(=O)N[C@@H](CCCCN)C(=O)N[C@H](C(=O)N[C@@H](CC(C)C)C(=O)N[C@@H](CCCNC(=N)N)C(=O)N[C@@H](CCCNC(=N)N)C(=O)N[C@@H](Cc2c[nH]cn2)C(N)=O)C(C)C)NC(=O)CNC(=O)[C@H](CC(C)C)NC(=O)CNC(=O)[C@H](CO)NC(=O)[C@H](CO)NC(=O)[C@H](CO)NC(=O)[C@H](CO)NC1=O [Example 21]
EC50 [1]: 1.99e-08 M
Ki (NPR receptors; displacement of 125I-ANF, read-out: apparent inhibition constant (Ki value)): 4.8 nM
Ki (NPR receptors; displacement of 125I-rANF, text gives the same Ki in M, read-out: KI (inhibition constant)): 4.86 nM
EC50 (NPR receptors; read-out: EC50 (M), concentration at 50% of inhibition, displacement of 0.016 nM 125I-rANF, 60 minutes at 4° C.): 5.41e-09 M

Molecule: human BNP: native human Brain Natriuretic Peptide, 32 amino acid peptide
in vivo half-life [2]: 12.7 min
